According to US20120121591A1 (priority 2009, published 2012):
Where two headings read alike, the source gives them in different places.

Key:
[1] = system: IL-2 secretion from T cells in human whole blood; type: cell-based
[2] = system: IFN-g secretion from T cells in human whole blood; type: cell-based
[3] = read-out: WB (IL-2) IC50 (nM, Avg)
[4] = read-out: WB (IFNg) IC50 (nM, Avg)

| Compound | IC50 [1, 3] [nM] | IC50 [2, 4] [nM] | IC50 ([1]; read-out: WB (IL-2) IC50) [nM] | IC50 ([2]; read-out: WB (IFNg) IC50) [nM] |
| --- | --- | --- | --- | --- |
| CC[C@H](C)[C@@H]1NC(=O)[C@@H](NC(=O)[C@H](CO)NC(=O)[C@@H](N)CCCNC(=N)N)CSSC[C@@H](C(=O)O)NC(=O)[C@H]([C@@H](C)O)NC(=O)CNC(=O)[C@@H]2CSSC[C@@H]3NC(=O)[C@H](CCC(N)=O)NC(=O)[C@H](Cc4ccccc4)NC(=O)[C@H](C)NC(=O)[C@H]([C@@H](C)O)NC(=O)[C@H](CSSC[C@H](NC(=O)[C@H](Cc4ccccc4)NC(=O)[C@H](CO)NC(=O)[C@H](CC(C)C)NC(=O)[C@H](CCCNC(=N)N)NC(=O)[C@H](Cc4ccc(O)cc4)NC(=O)[C@H](CCCCN)NC(=O)[C@H](CCSC)NC(=O)[C@H](CO)NC(=O)[C@H](Cc4c[nH]cn4)NC(=O)[C@H](CCCCN)NC3=O)C(=O)N[C@@H](CCCNC(=N)N)C(=O)N[C@@H](CCCCN)C(=O)N[C@@H]([C@@H](C)O)C(=O)N2)NC(=O)[C@H](C)NC(=O)[C@H](CO)NC(=O)[C@H](CCCCN)NC(=O)[C@@H]2CCCN2C(=O)[C@H]([C@@H](C)CC)NC(=O)[C@H]([C@@H](C)O)NC(=O)[C@H](CC(=O)O)NC1=O [[Ala11]ShK] | 1.24 | 1.9 | – | – |
| CC[C@H](C)[C@@H]1NC(=O)[C@@H](NC(=O)[C@H](CO)NC(=O)[C@@H](N)CCCNC(=N)N)CSSC[C@@H](C(=O)O)NC(=O)[C@H]([C@@H](C)O)NC(=O)CNC(=O)[C@@H]2CSSC[C@@H]3NC(=O)[C@H](CCC(N)=O)NC(=O)[C@H](Cc4ccccc4)NC(=O)[C@H](C)NC(=O)[C@H](Cc4cccc5ccccc45)NC(=O)[C@H](CSSC[C@H](NC(=O)[C@H](Cc4ccccc4)NC(=O)[C@H](CO)NC(=O)[C@H](CC(C)C)NC(=O)[C@H](CCCNC(=N)N)NC(=O)[C@H](Cc4ccc(O)cc4)NC(=O)[C@H](CCCCN)NC(=O)[C@H](CCSC)NC(=O)[C@H](CO)NC(=O)[C@H](Cc4c[nH]cn4)NC(=O)[C@H](CCCCN)NC3=O)C(=O)N[C@@H](CCCNC(=N)N)C(=O)N[C@@H](CCCCN)C(=O)N[C@@H]([C@@H](C)O)C(=O)N2)NC(=O)[C@H](CCCNC(=N)N)NC(=O)[C@H](CO)NC(=O)[C@H](CCCCN)NC(=O)[C@@H]2CCCN2C(=O)[C@H]([C@@H](C)CC)NC(=O)[C@H]([C@@H](C)O)NC(=O)[C@H](CC(=O)O)NC1=O [[1-Nal13]ShK] | 3.56 | 4.86 | – | – |
| CC[C@H](C)[C@@H]1NC(=O)[C@@H](NC(=O)[C@H](CO)NC(=O)[C@@H](N)CCCNC(=N)N)CSSC[C@@H](C(=O)O)NC(=O)[C@H]([C@@H](C)O)NC(=O)CNC(=O)[C@@H]2CSSC[C@@H]3NC(=O)[C@H](CCCCN)NC(=O)[C@H](Cc4ccccc4)NC(=O)[C@H](C)NC(=O)[C@H]([C@@H](C)O)NC(=O)[C@H](CSSC[C@H](NC(=O)[C@H](Cc4ccccc4)NC(=O)[C@H](CO)NC(=O)[C@H](CC(C)C)NC(=O)[C@H](CCCNC(=N)N)NC(=O)[C@H](Cc4ccc(O)cc4)NC(=O)[C@H](CCCCN)NC(=O)[C@H](CCSC)NC(=O)[C@H](CO)NC(=O)[C@H](Cc4c[nH]cn4)NC(=O)[C@H](CCCCN)NC3=O)C(=O)N[C@@H](CCCNC(=N)N)C(=O)N[C@@H](CCCNC(=N)N)C(=O)N[C@@H]([C@@H](C)O)C(=O)N2)NC(=O)[C@H](CCCNC(=N)N)NC(=O)[C@H](CO)NC(=O)[C@H](CCCCN)NC(=O)[C@@H]2CCCN2C(=O)[C@H]([C@@H](C)CC)NC(=O)[C@H]([C@@H](C)O)NC(=O)[C@H](CC(=O)O)NC1=O [[Lys16,Arg30]ShK] | 0.169 | 0.189 | – | – |
| CC[C@H](C)[C@@H]1NC(=O)[C@@H](NC(=O)[C@H](CO)NC(=O)[C@@H](N)CCCNC(=N)N)CSSC[C@@H](C(=O)O)NC(=O)[C@H]([C@@H](C)O)NC(=O)CNC(=O)[C@@H]2CSSC[C@@H]3NC(=O)[C@H](CCC(N)=O)NC(=O)[C@H](Cc4ccccc4)NC(=O)[C@H](C)NC(=O)[C@H]([C@@H](C)O)NC(=O)[C@H](CSSC[C@H](NC(=O)[C@H](Cc4ccccc4)NC(=O)[C@H](CO)NC(=O)[C@H](CC(C)C)NC(=O)[C@H](CCCNC(=N)N)NC(=O)[C@H](Cc4ccc(O)cc4)NC(=O)[C@H](CCCCN)NC(=O)[C@H](CCSC)NC(=O)[C@H](CO)NC(=O)[C@H](Cc4c[nH]cn4)NC(=O)[C@H](CCCCN)NC3=O)C(=O)N[C@@H](CCCNC(=N)N)C(=O)N[C@@H](CCCCN)C(=O)N[C@@H]([C@@H](C)O)C(=O)N2)NC(=O)[C@H](CCCNC(=N)N)NC(=O)[C@H](CO)NC(=O)[C@H](CCCCN)NC(=O)[C@@H]2CCCN2C(=O)[C@H]([C@@H](C)CC)NC(=O)[C@H]([C@@H](C)O)NC(=O)[C@H](CC(=O)O)NC1=O [ShK(1-35), reference compound] | 0.043 | 0.052 | 0.067 | 0.078 |
| CC[C@H](C)[C@@H]1NC(=O)[C@@H](NC(=O)[C@H](CO)NC(=O)[C@@H](N)CCCNC(=N)N)CSSC[C@@H](C(=O)O)NC(=O)[C@H]([C@@H](C)O)NC(=O)CNC(=O)[C@@H]2CSSC[C@@H]3NC(=O)[C@H](CCC(N)=O)NC(=O)[C@H](Cc4ccccc4)NC(=O)[C@H](C)NC(=O)[C@H]([C@@H](C)O)NC(=O)[C@H](CSSC[C@H](NC(=O)[C@H](Cc4ccccc4)NC(=O)[C@H](CO)NC(=O)[C@H](CC(C)C)NC(=O)[C@H](CCCNC(=N)N)NC(=O)[C@H](Cc4ccc(O)cc4)NC(=O)[C@H](CCCCN)NC(=O)[C@H](CCSC)NC(=O)[C@H](CO)NC(=O)[C@H](Cc4c[nH]cn4)NC(=O)[C@H](CCCCN)NC3=O)C(=O)N[C@@H](CCCNC(=N)N)C(=O)N[C@@H](Cc3cccc4ccccc34)C(=O)N[C@@H]([C@@H](C)O)C(=O)N2)NC(=O)[C@H](CCCNC(=N)N)NC(=O)[C@H](CO)NC(=O)[C@H](CCCCN)NC(=O)[C@@H]2CCCN2C(=O)[C@H]([C@@H](C)CC)NC(=O)[C@H]([C@@H](C)O)NC(=O)[C@H](CC(=O)O)NC1=O [[1-Nal30]ShK] | 0.082 | 0.148 | – | – |
| CC[C@H](C)[C@@H]1NC(=O)[C@@H](NC(=O)[C@H](CO)NC(=O)[C@@H](N)CCCNC(=N)N)CSSC[C@@H](C(=O)O)NC(=O)[C@H]([C@@H](C)O)NC(=O)CNC(=O)[C@@H]2CSSC[C@@H]3NC(=O)[C@H](CCC(N)=O)NC(=O)[C@H](Cc4ccccc4)NC(=O)[C@H](C)NC(=O)[C@H](C)NC(=O)[C@H](CSSC[C@H](NC(=O)[C@H](Cc4ccccc4)NC(=O)[C@H](CO)NC(=O)[C@H](CC(C)C)NC(=O)[C@H](CCCNC(=N)N)NC(=O)[C@H](Cc4ccc(O)cc4)NC(=O)[C@H](CCCCN)NC(=O)[C@H](CCSC)NC(=O)[C@H](CO)NC(=O)[C@H](Cc4c[nH]cn4)NC(=O)[C@H](CCCCN)NC3=O)C(=O)N[C@@H](CCCNC(=N)N)C(=O)N[C@@H](CCCCN)C(=O)N[C@@H]([C@@H](C)O)C(=O)N2)NC(=O)[C@H](CCCNC(=N)N)NC(=O)[C@H](CO)NC(=O)[C@H](CCCCN)NC(=O)[C@@H]2CCCN2C(=O)[C@H]([C@@H](C)CC)NC(=O)[C@H]([C@@H](C)O)NC(=O)[C@H](CC(=O)O)NC1=O [[Ala13]ShK] | 0.582 | 0.954 | – | – |
| CC[C@H](C)[C@@H]1NC(=O)[C@@H](NC(=O)[C@H](CO)NC(=O)[C@@H](N)CCCNC(=N)N)CSSC[C@@H](C(=O)O)NC(=O)[C@H]([C@@H](C)O)NC(=O)[C@H](CCC(=O)O)NC(=O)[C@@H]2CSSC[C@@H]3NC(=O)[C@H](CCC(N)=O)NC(=O)[C@H](Cc4ccccc4)NC(=O)[C@H](C)NC(=O)[C@H]([C@@H](C)O)NC(=O)[C@H](CSSC[C@H](NC(=O)[C@H](Cc4ccccc4)NC(=O)[C@H](CO)NC(=O)[C@H](CC(C)C)NC(=O)[C@H](CCCNC(=N)N)NC(=O)[C@H](Cc4ccc(O)cc4)NC(=O)[C@H](CCCCN)NC(=O)[C@H](CCSC)NC(=O)[C@H](CO)NC(=O)[C@H](Cc4c[nH]cn4)NC(=O)[C@H](CCCCN)NC3=O)C(=O)N[C@@H](CCCNC(=N)N)C(=O)N[C@@H](CCCCN)C(=O)N[C@@H]([C@@H](C)O)C(=O)N2)NC(=O)[C@H](CCCNC(=N)N)NC(=O)[C@H](CO)NC(=O)[C@H](CCCCN)NC(=O)[C@@H]2CCCN2C(=O)[C@H]([C@@H](C)CC)NC(=O)[C@H]([C@@H](C)O)NC(=O)[C@H](CC(=O)O)NC1=O [[Glu33]ShK] | 0.054 | – | – | – |
| CC[C@H](C)[C@@H]1NC(=O)[C@@H](NC(=O)[C@H](CO)NC(=O)[C@@H](N)CCCNC(=N)N)CSSC[C@@H](C(=O)O)NC(=O)[C@H]([C@@H](C)O)NC(=O)CNC(=O)[C@@H]2CSSC[C@@H]3NC(=O)[C@H](CCC(N)=O)NC(=O)[C@H](Cc4ccccc4)NC(=O)[C@H](C)NC(=O)[C@H]([C@@H](C)O)NC(=O)[C@H](CSSC[C@H](NC(=O)[C@H](Cc4ccccc4)NC(=O)[C@H](CO)NC(=O)[C@H](CC(C)C)NC(=O)[C@H](CCCCN)NC(=O)[C@H](Cc4ccc(O)cc4)NC(=O)[C@H](CCCCN)NC(=O)[C@H](CCSC)NC(=O)[C@H](CO)NC(=O)[C@H](Cc4c[nH]cn4)NC(=O)[C@H](CCCCN)NC3=O)C(=O)N[C@@H](CCCNC(=N)N)C(=O)N[C@@H](CCCCN)C(=O)N[C@@H]([C@@H](C)O)C(=O)N2)NC(=O)[C@H](CCCNC(=N)N)NC(=O)[C@H](CO)NC(=O)[C@H](CCCCN)NC(=O)[C@@H]2CCCN2C(=O)[C@H]([C@@H](C)CC)NC(=O)[C@H]([C@@H](C)O)NC(=O)[C@H](CC(=O)O)NC1=O [[Lys24]ShK] | 0.044 | – | – | – |
| CC[C@H](C)[C@@H]1NC(=O)[C@@H](NC(=O)[C@H](CO)NC(=O)[C@@H](N)CCCNC(=N)N)CSSC[C@@H](C(=O)O)NC(=O)[C@H]([C@@H](C)O)NC(=O)CNC(=O)[C@@H]2CSSC[C@@H]3NC(=O)[C@H](CCC(N)=O)NC(=O)[C@H](Cc4ccccc4)NC(=O)[C@H](C)NC(=O)[C@H]([C@@H](C)O)NC(=O)[C@H](CSSC[C@H](NC(=O)[C@H](Cc4ccccc4)NC(=O)[C@H](CO)NC(=O)[C@H](CC(C)C)NC(=O)[C@H](CCCNC(=N)N)NC(=O)[C@H](Cc4ccc(O)cc4)NC(=O)[C@H](CCCCN)NC(=O)[C@H](CCSC)NC(=O)[C@H](CO)NC(=O)[C@H](Cc4c[nH]cn4)NC(=O)[C@H](CCCCN)NC3=O)C(=O)N[C@@H](CCCNC(=N)N)C(=O)N[C@@H](CCCCN)C(=O)N[C@@H]([C@@H](C)O)C(=O)N2)NC(=O)[C@H](CCCNC(=N)N)NC(=O)[C@H](CO)NC(=O)[C@H](Cc2cccc3ccccc23)NC(=O)[C@@H]2CCCN2C(=O)[C@H]([C@@H](C)CC)NC(=O)[C@H]([C@@H](C)O)NC(=O)[C@H](CC(=O)O)NC1=O [[1-Nal9]ShK] | 0.367 | – | – | – |
